Laboratory results taken from paper PMC6219668 (Oncotarget, 2018).

System: panel of nearly 500 cancer cell lines
Experiment: Cancer Cell Line Encyclopedia profiling, 3-day CellTiter-Glo
Assay type: cell-based
Conditions: Homo sapiens

CN(C)C(=O)c1cc2cnc(Nc3ccc(N4CCNCC4)cn3)nc2n1C1CCCC1 [Ribociclib, 7-cyclopentyl-2-(5-piperazin-1-yl-pyridin-2-ylamino)-7H-pyrrolo[2,3-d]pyrimidine-6-carboxylic acid dimethylamide] showed an EC50 (HPAF-II) greater than 8 µM, an IC50 (HPAF-II) greater than 8 µM and an EC50 (HSC-2) greater than 8 µM. It also gave an IC50 (HSC-2) greater than 8 µM, an EC50 (HT1197) of 1.84 µM and an IC50 (HT1197) greater than 8 µM. For the same compound, the EC50 (HT-29) was greater than 8 µM, the IC50 (HT-29) was 5.83 µM and the EC50 (HT-144) was greater than 8 µM. The IC50 (HT-144) was greater than 8 µM, the EC50 (HT-1080) was 2.73 µM and the IC50 (HT-1080) was greater than 8 µM. For the same compound, the EC50 (HepG2) was 0.231 µM, the IC50 (HepG2) was greater than 8 µM and the EC50 (Hs 294T) was 4.66 µM. For the same compound, the IC50 (Hs 294T) was greater than 8 µM, the EC50 (Hs 683) was greater than 8 µM and the IC50 (Hs 683) was greater than 8 µM. For the same compound, the EC50 (Hs 695T) was greater than 8 µM, the IC50 (Hs 695T) was greater than 8 µM and the EC50 (Hs746T) was 0.436 µM. It also gave an IC50 (Hs746T) greater than 8 µM, an EC50 (Hs-578T) greater than 8 µM and an IC50 (Hs-578T) greater than 8 µM. The EC50 (HuCCT-1) was greater than 8 µM, the IC50 (HuCCT-1) was greater than 8 µM and the EC50 (HuH-1) was greater than 8 µM. For the same compound, the IC50 (HuH-1) was greater than 8 µM, the EC50 (HuP-T3) was greater than 8 µM and the IC50 (HuP-T3) was greater than 8 µM. It also gave an EC50 (HuP-T4) of 2.24 µM, an IC50 (HuP-T4) of 4.3 µM and an EC50 (HuT78) greater than 8 µM. The IC50 (HuT78) was greater than 8 µM, the EC50 (IGR-37) was 0.207 µM and the IC50 (IGR-37) was greater than 8 µM. It also gave an EC50 (IGROV-1) greater than 8 µM, an IC50 (IGROV-1) greater than 8 µM and an EC50 (IM95) greater than 8 µM. The IC50 (IM95) was greater than 8 µM, the EC50 (IMR-32) was 0.287 µM and the IC50 (IMR-32) was 1.56 µM. It also gave an EC50 (JVM-3) greater than 8 µM, an IC50 (JVM-3) greater than 8 µM and an EC50 (Jurkat) of 3.75 µM. It also gave an IC50 (Jurkat) of 3.69 µM, an EC50 (KALS-1) greater than 8 µM and an IC50 (KALS-1) greater than 8 µM. It also gave an EC50 (KARPAS-299) of 0.878 µM, an IC50 (KARPAS-299) greater than 8 µM and an EC50 (KARPAS-422) greater than 8 µM. For the same compound, the IC50 (KARPAS-422) was greater than 8 µM, the EC50 (KCL-22) was greater than 8 µM and the IC50 (KCL-22) was 6.12 µM. For the same compound, the EC50 (KMS-11) was 0.233 µM, the IC50 (KMS-11) was greater than 8 µM and the EC50 (KMS-12-BM) was greater than 8 µM. It also gave an IC50 (KMS-12-BM) greater than 8 µM, an EC50 (KNS-42) of 0.134 µM and an IC50 (KNS-42) greater than 8 µM. For the same compound, the EC50 (KNS-62) was 0.934 µM, the IC50 (KNS-62) was greater than 8 µM and the IC50 (KU812) was greater than 8 µM. The EC50 (KYSE-30) was greater than 8 µM, the IC50 (KYSE-30) was greater than 8 µM and the EC50 (KYSE-70) was 1.2 µM. For the same compound, the IC50 (KYSE-70) was 5.61 µM, the EC50 (KYSE-140) was 0.436 µM and the IC50 (KYSE-140) was greater than 8 µM. The EC50 (KYSE-150) was 2.92 µM, the IC50 (KYSE-150) was greater than 8 µM and the EC50 (KYSE-180) was 0.507 µM. For the same compound, the IC50 (KYSE-180) was greater than 8 µM, the EC50 (KYSE-410) was greater than 8 µM and the IC50 (KYSE-410) was greater than 8 µM. For the same compound, the EC50 (KYSE-450) was greater than 8 µM, the IC50 (KYSE-450) was greater than 8 µM and the EC50 (KYSE-510) was greater than 8 µM. The IC50 (KYSE-510) was greater than 8 µM, the EC50 (KYSE-520) was 6.06 µM and the IC50 (KYSE-520) was greater than 8 µM. It also gave an EC50 (L-363) of 1.04 µM, an IC50 (L-363) greater than 8 µM and an EC50 (L-428) of 2.03 µM. For the same compound, the IC50 (L-428) was greater than 8 µM, the EC50 (LCLC-103H) was greater than 8 µM and the IC50 (LCLC-103H) was greater than 8 µM. It also gave an EC50 (LN-18) greater than 8 µM, an IC50 (LN-18) greater than 8 µM and an EC50 (LN-229) greater than 8 µM. It also gave an IC50 (LN-229) greater than 8 µM, an EC50 (LOX IMVI) of 2.92 µM and an IC50 (LOX IMVI) greater than 8 µM. For the same compound, the EC50 (LS-123) was greater than 8 µM, the IC50 (LS-123) was greater than 8 µM and the EC50 (LS-411N) was 3.42 µM. It also gave an IC50 (LS-411N) of 1.71 µM, an EC50 (LS-513) greater than 8 µM and an IC50 (LS-513) greater than 8 µM. For the same compound, the EC50 (Lu-99) was 0.564 µM, the IC50 (Lu-99) was 3.69 µM and the EC50 (M059J) was greater than 8 µM. It also gave an IC50 (M059J) greater than 8 µM, an EC50 (MC116) greater than 8 µM and an IC50 (MC116) greater than 8 µM. It also gave an EC50 (MCF7) of 0.343 µM, an IC50 (MCF7) of 1.37 µM and an EC50 (MDA-MB-157) greater than 8 µM. It also gave an IC50 (MDA-MB-157) greater than 8 µM, an EC50 (MDA-MB-175-VII) greater than 8 µM and an IC50 (MDA-MB-175-VII) greater than 8 µM. It also gave an EC50 (MDA-MB-415) greater than 8 µM, an IC50 (MDA-MB-415) greater than 8 µM and an EC50 (MDA-MB-435S) of 0.207 µM. For the same compound, the IC50 (MDA-MB-435S) was 0.775 µM, the EC50 (MDA-MB-436) was greater than 8 µM and the IC50 (MDA-MB-436) was greater than 8 µM. For the same compound, the EC50 (MDA-MB-453) was 0.166 µM, the IC50 (MDA-MB-453) was greater than 8 µM and the EC50 (MDA-MB-468) was 0.347 µM. For the same compound, the IC50 (MDA-MB-468) was greater than 8 µM, the EC50 (MEC1) was greater than 8 µM and the IC50 (MEC1) was greater than 8 µM. It also gave an EC50 (MEG-01) of 0.392 µM, an IC50 (MEG-01) greater than 8 µM and an EC50 (MES-SA) of 0.839 µM. It also gave an IC50 (MES-SA) greater than 8 µM, an EC50 (MFE-280) greater than 8 µM and an IC50 (MFE-280) greater than 8 µM. For the same compound, the EC50 (MFE-296) was 0.163 µM, the IC50 (MFE-296) was 0.848 µM and the EC50 (MG-63) was 0.239 µM. For the same compound, the IC50 (MG-63) was greater than 8 µM, the EC50 (MIA PaCa-2) was 2.36 µM and the IC50 (MIA PaCa-2) was 5.57 µM. For the same compound, the EC50 (MINO) was 0.266 µM, the IC50 (MINO) was 0.456 µM and the EC50 (MKN-7) was greater than 8 µM. For the same compound, the IC50 (MKN-7) was greater than 8 µM, the EC50 (MKN-45) was 0.23 µM and the IC50 (MKN-45) was greater than 8 µM. For the same compound, the EC50 (MKN-74) was greater than 8 µM, the IC50 (MKN-74) was greater than 8 µM and the EC50 (MOLP-8) was greater than 8 µM. It also gave an IC50 (MOLP-8) greater than 8 µM, an EC50 (MSTO-211H) greater than 8 µM and an IC50 (MSTO-211H) greater than 8 µM. The EC50 (Malme-3M) was 0.00254 µM, the IC50 (Malme-3M) was greater than 8 µM and the EC50 (MeWo) was 2.57 µM. The IC50 (MeWo) was 2.57 µM, the EC50 (NCI-H23) was greater than 8 µM and the IC50 (NCI-H23) was greater than 8 µM. It also gave an EC50 (NCI-H28) greater than 8 µM, an IC50 (NCI-H28) of 6.1 µM and an EC50 (NCI-H211) of 0.368 µM. For the same compound, the IC50 (NCI-H211) was greater than 8 µM, the EC50 (NCI-H226) was greater than 8 µM and the IC50 (NCI-H226) was greater than 8 µM. The EC50 (NCI-H358) was 6.86 µM, the IC50 (NCI-H358) was greater than 8 µM and the EC50 (NCI-H441) was 0.337 µM. It also gave an IC50 (NCI-H441) greater than 8 µM, an EC50 (NCI-H460) greater than 8 µM and an IC50 (NCI-H460) greater than 8 µM. For the same compound, the EC50 (NCI-H520) was greater than 8 µM, the IC50 (NCI-H520) was greater than 8 µM and the EC50 (NCI-H522) was greater than 8 µM. For the same compound, the IC50 (NCI-H522) was greater than 8 µM, the EC50 (NCI-H647) was greater than 8 µM and the IC50 (NCI-H647) was greater than 8 µM. It also gave an EC50 (NCI-H650) of 2.43 µM, an IC50 (NCI-H650) greater than 8 µM and an EC50 (NCI-H661) greater than 8 µM. It also gave an IC50 (NCI-H661) greater than 8 µM, an EC50 (NCI-H727) of 1.06 µM and an IC50 (NCI-H727) greater than 8 µM. The EC50 (NCI-H747) was greater than 8 µM, the IC50 (NCI-H747) was greater than 8 µM and the EC50 (NCI-H810) was greater than 8 µM. It also gave an IC50 (NCI-H810) greater than 8 µM, an EC50 (NCI-H1048) greater than 8 µM and an IC50 (NCI-H1048) greater than 8 µM. For the same compound, the EC50 (NCI-H1092) was greater than 8 µM, the IC50 (NCI-H1092) was greater than 8 µM and the EC50 (NCI-H1155) was 2.66 µM. It also gave an IC50 (NCI-H1155) greater than 8 µM, an EC50 (NCI-H1299) of 1.51 µM and an IC50 (NCI-H1299) greater than 8 µM. It also gave an EC50 (NCI-H1355) of 0.471 µM, an IC50 (NCI-H1355) greater than 8 µM and an EC50 (NCI-H1373) greater than 8 µM. The IC50 (NCI-H1373) was greater than 8 µM, the EC50 (NCI-H1563) was greater than 8 µM and the IC50 (NCI-H1563) was greater than 8 µM. It also gave an EC50 (NCI-H1573) greater than 8 µM, an IC50 (NCI-H1573) greater than 8 µM and an EC50 (NCI-H1581) greater than 8 µM. The IC50 (NCI-H1581) was greater than 8 µM, the EC50 (NCI-H1648) was greater than 8 µM and the IC50 (NCI-H1648) was greater than 8 µM. The EC50 (NCI-H1650) was greater than 8 µM, the IC50 (NCI-H1650) was greater than 8 µM and the EC50 (NCI-H1651) was greater than 8 µM. For the same compound, the IC50 (NCI-H1651) was greater than 8 µM and the EC50 (NCI-H1666) was greater than 8 µM.
